This assay concerns the target T1, AXL (Homo sapiens, UniProt P30530).
T1 construct: purchased Thermo Fisher Scientific (Life Technologies) SelectScreen
Nature of the assay: SelectScreen Z'LYTE. In kind it is biochemical. Put shortly: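 SelectScreen broad panel; activity (Z'LYTE, Adapta) plus binding formats. ATP: Km app for CSF1R Z'LYTE; 10 for CAMK1 Adapta. Readout = % per kinase.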

Each structure is given as a SMILES string.

T1 sequence (P30530 26-894): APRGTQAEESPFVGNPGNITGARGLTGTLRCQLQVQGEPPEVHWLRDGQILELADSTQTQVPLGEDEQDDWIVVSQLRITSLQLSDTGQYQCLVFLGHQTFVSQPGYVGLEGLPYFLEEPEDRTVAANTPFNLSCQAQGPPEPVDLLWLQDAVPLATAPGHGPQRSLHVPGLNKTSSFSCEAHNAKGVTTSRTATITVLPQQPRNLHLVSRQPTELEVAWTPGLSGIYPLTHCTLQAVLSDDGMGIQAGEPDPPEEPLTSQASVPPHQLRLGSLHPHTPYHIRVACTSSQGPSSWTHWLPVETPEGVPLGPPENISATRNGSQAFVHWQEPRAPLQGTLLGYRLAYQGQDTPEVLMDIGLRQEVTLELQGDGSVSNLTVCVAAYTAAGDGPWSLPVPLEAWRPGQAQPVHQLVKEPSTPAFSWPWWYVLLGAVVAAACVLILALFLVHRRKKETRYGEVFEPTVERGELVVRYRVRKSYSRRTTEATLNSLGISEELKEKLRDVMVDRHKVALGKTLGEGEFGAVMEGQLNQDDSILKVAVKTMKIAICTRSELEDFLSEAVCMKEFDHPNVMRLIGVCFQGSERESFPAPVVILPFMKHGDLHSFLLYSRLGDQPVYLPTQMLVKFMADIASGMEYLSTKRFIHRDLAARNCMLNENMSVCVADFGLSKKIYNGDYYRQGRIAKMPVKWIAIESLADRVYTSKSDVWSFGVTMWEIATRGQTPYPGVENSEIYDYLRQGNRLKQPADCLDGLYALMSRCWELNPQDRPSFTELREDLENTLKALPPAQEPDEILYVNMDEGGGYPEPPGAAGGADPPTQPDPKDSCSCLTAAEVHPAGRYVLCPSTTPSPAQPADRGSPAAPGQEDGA

Usually inhibition stands for the relative decrease from the control value, in per cent. `CN(C(=O)CN1CCOCC1)c1ccc2sc3c(-c4cccc5c(=O)cc(N6CC7CCC(C6)O7)oc45)cccc3c2c1` [NU5455]: the inhibition at 1 µM is -4.2%.

The values are drawn from PMC6934184, “Selective DNA-PKcs inhibition extends the therapeutic index of localized radiotherapy and chemotherapy” (The Journal of Clinical Investigation, 2019).
